These results are taken from ChEMBL document CHEMBL1201862, “PubChem BioAssay data set” (2004).

Test [1] can be described thus: inhibitors of firefly luciferase expression or activity, dose response, H4 neuroglioma cells, luminescence (AID 1990). Format: functional, cell-based.
The nature of test [2]: Luminescence Cell-Based Dose Response HTS to Identify Inhibitors of 5'UTR Stem-Loop Driven Prion Protein mRNA Translation in H4 Neuroglioblastoma Cells. [Related pubchem assays: 1827 (Project Summary), 1813 (Primary HTS)]. Format: functional.
Test [3] in a line: inhibitors of SNCA 5'UTR-driven reporter translation, confirmation, H4 neuroglioma cells, luminescence (AID 1988). The format is functional, cell-based.
Test [4] deals with T1, Polyadenylate-binding protein 1 (Homo sapiens, UniProt P11940). The test can be described thus: PABP1 MLLE–PAM2 interaction inhibitors, dose response, miRNA deadenylation inhibitor project, biochemical, fluorescence polarization, Cy5-PAM2 peptide, secondary (AID 602260). Format: functional. The note with it: read-out: IC50_Mean.
Test [5] has as its target T1, Polyadenylate-binding protein 1. The test can be described thus: PABP1 MLLE–PAM2 binding inhibitor potency, dose response, biochemical, fluorescence polarization, FITC-PAM2 peptide (AID 602259). The format is functional. The note with it: read-out: IC50_Mean.
Test [6] is described as follows: NIH-3T3 fibroblast cytotoxicity, dose response, cytotoxicity control, cell-based, fluorescence, Alamar Blue, secondary assay (AID 2327).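 Further: NIH-3T3 mouse fibroblasts cultured with fluconazole at 8 µg/mL.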 The format is functional.
A short description of test [7]: C. albicans growth with fluconazole, confirmation, fluorescence, retest (AID 2467). The format is functional, cell-based.
A short description of another test: cells. Format: functional.
Test [8] relates to Streptococcus sp. 'group A'. The test can be described thus: growth inhibition of control SK(-) GAS strain, dose response, counter-screen for streptokinase expression inhibitor project, luminescence, kanamycin, BacTiterGlo, confirmation (AID 1900). The format is functional, organism-based.
The target in a further test is T2, Streptokinase A (Streptococcus pyogenes serotype M1, UniProt P10520).
T2 sequence (P10520 whole entry): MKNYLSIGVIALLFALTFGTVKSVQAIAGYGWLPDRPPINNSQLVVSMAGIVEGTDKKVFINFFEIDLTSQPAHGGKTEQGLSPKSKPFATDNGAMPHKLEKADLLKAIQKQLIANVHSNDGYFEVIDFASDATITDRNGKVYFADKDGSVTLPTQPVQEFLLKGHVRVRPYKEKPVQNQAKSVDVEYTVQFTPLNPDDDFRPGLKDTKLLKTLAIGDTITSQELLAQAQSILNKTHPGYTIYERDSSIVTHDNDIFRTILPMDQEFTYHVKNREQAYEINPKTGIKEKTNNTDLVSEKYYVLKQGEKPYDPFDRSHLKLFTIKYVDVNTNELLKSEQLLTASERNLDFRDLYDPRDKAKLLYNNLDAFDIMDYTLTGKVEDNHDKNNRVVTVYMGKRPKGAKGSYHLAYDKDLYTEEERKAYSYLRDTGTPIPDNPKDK
Put plainly: S. pyogenes streptokinase expression inhibitors, potency, dose response, plasminogen activation absorbance, OD405 (AID 1914).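 Further: secreted streptokinase activity via plasminogen activation per viability signal from cell pellet.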 The format is functional, Streptococcus pyogenes M1 GAS.

The subject of another test is Streptococcus. Put plainly: Group A Streptococcus viability loss, dose response, counter-screen for streptokinase expression inhibitor project, luminescence, BacTiterGlo (AID 1915).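 Further: potency for reduction of bacterial viability or growth.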 Format: functional, organism-based.
Test [9] is described as follows: Shn3 3'UTR reporter inhibitors, dose response, cell-based, Clone20 osteoblasts, firefly luciferase, cherry-picked (AID 624132).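 Further: firefly luciferase luminescence from reporter carrying the Shn3 3'UTR in osteoblasts.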 Format: functional.
Test [10] is described as follows: HepG2 cell cytotoxicity, dose response, cytotoxicity control for Shn3 inhibitor project, CellTiter-Glo, cherry-picked (AID 624134). The format is functional, cell-based.
A short description of test [11]: control 3'UTR Renilla luciferase suppression, dose response, counter-screen for Shn3 inhibitor project, cell-based, Clone20-Shn3RL, cherry-picked (AID 624133). Format: functional.
The nature of test [12]: growth suppression of PTEN-null colon cells, dose response, cell-based, HCT116 PTEN knockout (AID 1047).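 Further: HCT116 colon tumor cells with PTEN knocked out; cells exposed to compound for 60 hours before readout; potency for loss of cell viability measured by luminescence.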 Format: functional.
Test [13] in a line: growth suppression of beta-catenin-knockout colon cells, dose response, cell-based, HCT116, human colon tumor (AID 1045).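 Further: HCT116 colon tumor cells with beta catenin knocked out; cells exposed to compound for 60 hours.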 Format: functional.
The next test relates to INS1. The test can be described thus: beta cell apoptosis inhibitors, cytokine rescue, dose response, luminescence, retest (AID 449756).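 Further: cell death triggered by IL-1 beta plus TNF-alpha plus IFN-gamma mixture; protective hits raise ATP signal compared with cytokine alone wells.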 The note with it: Rattus norvegicus. The format is functional, cell-based.
For test [14], the target named is T3, RNA-binding protein pos-1 (Caenorhabditis elegans, UniProt G5EF15).
T3 sequence (G5EF15 whole entry): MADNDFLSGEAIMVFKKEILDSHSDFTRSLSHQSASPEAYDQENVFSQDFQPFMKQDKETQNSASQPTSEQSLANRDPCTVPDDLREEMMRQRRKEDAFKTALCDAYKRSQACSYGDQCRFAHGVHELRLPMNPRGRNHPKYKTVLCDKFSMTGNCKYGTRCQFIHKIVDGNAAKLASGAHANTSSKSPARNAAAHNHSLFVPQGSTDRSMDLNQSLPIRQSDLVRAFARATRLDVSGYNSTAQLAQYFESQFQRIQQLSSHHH
The test can be described thus: inhibitors of POS-1/mex-3 RNA binding, dose response, biochemical, fluorescence polarization (AID 1964).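 Further: purified POS-1 fused to maltose binding protein made in E. coli; potency of compounds blocking POS-1 binding to fluorescent RNA.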

For test [15], the target named is T4, Zinc finger protein mex-5 (Caenorhabditis elegans, UniProt Q9XUB2).
T4 sequence (Q9XUB2 whole entry): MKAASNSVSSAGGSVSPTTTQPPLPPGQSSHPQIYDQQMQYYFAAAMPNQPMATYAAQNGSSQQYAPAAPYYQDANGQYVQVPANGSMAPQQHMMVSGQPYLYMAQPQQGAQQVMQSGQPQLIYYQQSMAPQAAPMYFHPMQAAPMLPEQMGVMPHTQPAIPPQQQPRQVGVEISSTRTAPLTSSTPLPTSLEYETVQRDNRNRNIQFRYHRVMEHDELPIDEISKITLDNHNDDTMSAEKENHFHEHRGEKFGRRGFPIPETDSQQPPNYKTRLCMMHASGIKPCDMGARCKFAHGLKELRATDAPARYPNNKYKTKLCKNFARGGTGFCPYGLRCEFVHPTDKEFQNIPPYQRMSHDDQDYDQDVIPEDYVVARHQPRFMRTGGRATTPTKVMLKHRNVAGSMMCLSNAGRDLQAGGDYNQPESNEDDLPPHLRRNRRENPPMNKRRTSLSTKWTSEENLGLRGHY
The test can be described thus: MEX-5/TCR-2 RNA interaction inhibitors, dose response, biochemical, C. elegans, fluorescence polarization (AID 1960).

A short description of test [16]: Luminescence Cell-Based Dose Retest to Confirm Inhibitors of Cancer Stem Cells. [Related pubchem assays (depositor defined):AID2717, AID2721]. The format is functional. Conditions: Homo sapiens.
The target of a further test is Cytochrome P450 3A4 (Homo sapiens, UniProt P08684).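 Further: CYP3A4 tested as one member of a cytochrome P450 panel screen.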
A further test concerns the target Paired box protein Pax-8 (Homo sapiens, UniProt Q06710). Put plainly: inhibitors of PAX8-driven TPO luciferase reporter, dose response, RMG-I cells, cherry-pick (AID 687027).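 Further: luciferase reporter driven by Pax8 target thyroperoxidase promoter measured by SteadyGlo luminescence.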 The format is functional, cell-based.

Active and inactive are the calls of the source. A value given as a limit tells only on which side of the number the result lay.

T1 sequence (P11940 whole entry): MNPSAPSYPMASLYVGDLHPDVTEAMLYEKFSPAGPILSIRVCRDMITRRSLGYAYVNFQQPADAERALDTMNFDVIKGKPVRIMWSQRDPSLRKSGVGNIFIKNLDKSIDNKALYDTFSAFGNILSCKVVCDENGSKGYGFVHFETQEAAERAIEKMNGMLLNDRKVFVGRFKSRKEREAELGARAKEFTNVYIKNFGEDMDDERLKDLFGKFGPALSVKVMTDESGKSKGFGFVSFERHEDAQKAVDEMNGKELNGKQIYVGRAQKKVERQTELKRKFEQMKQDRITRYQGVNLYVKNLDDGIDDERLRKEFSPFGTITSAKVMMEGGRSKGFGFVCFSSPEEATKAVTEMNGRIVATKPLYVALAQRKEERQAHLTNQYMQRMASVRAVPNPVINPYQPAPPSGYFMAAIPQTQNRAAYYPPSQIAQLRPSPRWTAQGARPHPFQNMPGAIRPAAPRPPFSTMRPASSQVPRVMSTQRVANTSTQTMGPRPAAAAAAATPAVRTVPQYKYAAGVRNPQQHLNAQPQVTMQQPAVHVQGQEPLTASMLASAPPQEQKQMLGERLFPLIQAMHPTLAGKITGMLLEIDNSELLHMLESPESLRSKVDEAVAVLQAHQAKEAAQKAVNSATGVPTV
Chain of Paired box protein Pax-8 (Q06710 whole entry): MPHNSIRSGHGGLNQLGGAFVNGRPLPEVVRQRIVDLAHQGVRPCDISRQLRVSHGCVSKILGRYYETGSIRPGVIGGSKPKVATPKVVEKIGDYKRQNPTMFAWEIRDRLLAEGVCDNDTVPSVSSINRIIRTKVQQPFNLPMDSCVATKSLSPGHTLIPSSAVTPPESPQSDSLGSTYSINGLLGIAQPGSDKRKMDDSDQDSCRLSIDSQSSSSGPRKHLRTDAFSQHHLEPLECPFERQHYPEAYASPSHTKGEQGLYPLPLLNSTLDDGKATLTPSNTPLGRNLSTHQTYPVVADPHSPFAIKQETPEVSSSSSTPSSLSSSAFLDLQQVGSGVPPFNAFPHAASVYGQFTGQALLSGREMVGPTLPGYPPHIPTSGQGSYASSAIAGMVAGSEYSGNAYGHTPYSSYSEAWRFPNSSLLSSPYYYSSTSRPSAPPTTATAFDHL
Chain of Cytochrome P450 3A4 (P08684 whole entry): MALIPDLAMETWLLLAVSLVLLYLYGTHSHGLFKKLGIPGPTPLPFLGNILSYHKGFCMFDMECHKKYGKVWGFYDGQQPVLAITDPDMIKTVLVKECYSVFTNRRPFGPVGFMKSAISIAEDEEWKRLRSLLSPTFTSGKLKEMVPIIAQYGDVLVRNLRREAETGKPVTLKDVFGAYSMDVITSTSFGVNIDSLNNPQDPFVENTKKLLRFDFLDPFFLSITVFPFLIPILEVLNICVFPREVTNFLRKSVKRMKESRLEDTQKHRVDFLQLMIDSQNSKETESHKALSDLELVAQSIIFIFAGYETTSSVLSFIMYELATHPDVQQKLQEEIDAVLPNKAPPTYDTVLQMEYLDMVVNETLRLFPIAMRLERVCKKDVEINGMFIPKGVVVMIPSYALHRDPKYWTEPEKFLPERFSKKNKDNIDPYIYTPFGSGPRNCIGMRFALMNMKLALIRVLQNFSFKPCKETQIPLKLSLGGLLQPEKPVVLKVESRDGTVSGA

Consider `CCc1ccc(Oc2coc3cc(OCC(=O)Nc4cc(C)ccc4C)ccc3c2=O)cc1`, for which the EC50 in [1] is 18.5 µM (active); in test [2], 14.8 µM (active); in test [3], 9.97 µM (active).

As to `O=[N+]([O-])c1cccc(C(=S)N2CCN(c3ccc(F)cc3)CC2)c1`, the IC50 in test [4] and in [5] was > 66 µM (inactive) throughout.

On to `O=C(O)CCCCCN1C(=O)/C(=C\c2ccncc2)SC1=S`, for which the EC50 in [6] is 6.7 µM (inconclusive); in [7], 1.45 µM (active). In the test “cells”, the IC50 is 23.6 µM (active).

For `COc1ccc2cc3c(N)nn(C(=O)C4CCC(C(C)(C)C)CC4)c3nc2c1` (centres undefined), the EC50 was 51.1 µM (active) in test [1]; 2.15 µM (active) in test [8]; 9.82 µM (active) in [2]; 12.3 µM (active) in test [3]; > 150 µM (not active) at Streptokinase A; 4.71 µM (active) with Streptococcus.

For `Cc1nn(Cc2ccc(Cl)cc2)c(C)c1NC(=O)c1cc(C(C)C)on1`, the figures for the AC50 in [9], in test [10] and in test [11] were 6.2 µM (active), 67 µM (active) and 9.1 µM (active), respectively.

Consider `O=C(Nc1nnc(-c2cccs2)o1)c1cccc(F)c1`, for which the EC50 was > 160 µM (inactive) in test [6], 1.25 µM (active) in [7], 10.5 µM (active) in [12] and 8.96 µM (active) in test [13].

As for `S=C(NCCCCN(Cc1ccc(Cl)cc1)c1ccc(Br)cn1)NCCCc1cnc[nH]1`, the AC50 in test [9] was 7.24 µM (active); in test [10] it was 19.5 µM (active); in [11], 39.3 µM (active).

As to `CCCNC(=O)c1ccc2c(O)c(O)c(-c3ccc(Cl)c([N+](=O)[O-])c3)nc2c1`, the values for the EC50 in [6] and in test [7] were > 150 µM (inactive) and 2.18 µM (active), respectively. Further, the AC50 in the test on INS1 is 5.06 µM (active).

Consider `COc1ccc(C)cc1N(C(=O)c1ccccc1F)c1nc2ccccc2s1`, for which the EC50 in test [1], in test [2] and in test [3] was > 120 µM (not active) throughout.

For `Cn1c(C(=O)NC2CCCCCC2)cc2c(=O)n(C)c3ccccc3c21`, the figures for the EC50 in [12] and in test [13] were 24.4 µM (active) and 21.1 µM (active), respectively.

Turning to `Cn1c(COc2ccc(Br)cc2)nnc1SC1CCc2ccccc2C1=O` (centres undefined), the AC50 in [9] was 35.2 µM (active); in [10], 58.9 µM (active); in test [11], 12.5 µM (active).

On to `Cc1c(Cc2ccccc2)sc(NC(=O)/C=C/c2cccc3ccccc23)c1C(N)=O`, for which the EC50 is 13.3 µM (inconclusive) in test [1], 10.9 µM (active) in [2] and 5.84 µM (active) in test [3].

Regarding `COc1cc(C(CC(=O)N2CCCC2)c2c(OC)cc(OC)c3ccc(=O)oc23)cc(OC)c1OC` (centres undefined), the EC50 in [14] was 8.14 µM (inconclusive); in test [15], 16.2 µM (active). For the same compound, the IC50 in test [4] was > 66 µM (inactive); in test [5], 60.3 µM (inactive).

As for `CC(C)C1=C2CCCCC2NC(=O)N1` (centres undefined), the IC50 in test [4] and in [5] was > 66 µM (inactive) in each case.

Regarding `CCCOc1nc2c(c(=O)n(C)c(=O)n2C)n1Cc1cccc2ccccc12`, the half-maximal effective concentration (EC50) in test [12] is 49 µM (active); in test [13] it was 27.1 µM (active). The AC50 in the test on INS1 is 6.39 µM (active).

For the compound `N#CCSc1nnc(CNc2ccc(F)cc2)o1`, the IC50 in [4] and in test [5] was > 66 µM (inactive) throughout.

As for `O=C(O)c1cccc(NC(=S)NC(=O)c2ccncc2)c1`, the IC50 in test [4] and in test [5] was > 66 µM (inactive) each time.

In the case of `C=CCNC(=S)NS(=O)(=O)c1cccs1`, the IC50 in test [4] and in [5] was > 66 µM (inactive) in each case.

Take `O=C(NC(=S)Nc1ccc(S(=O)(=O)N2CCCC2)cc1)c1cccs1`: the IC50 in [4] and in test [5] was > 66 µM (inactive) each time.

As for `CCOC(=O)C1(Cc2cccc(OC)c2)CCN(C/C=C/c2ccc(OC)cc2)CC1`, the AC50 in test [9] was 4.75 µM (active); in [10], 51.6 µM (active); in test [11], 5.59 µM (active).

With `Cc1ccc(Cl)cc1NC(=O)c1ccccc1OCC(=O)Nc1ccc(Cl)cc1`, the EC50 in test [12] is 8.82 µM (active); in test [13] it was 10.9 µM (active). In test [16], the AC50 was 10.6 µM (inconclusive).

In the case of `Cc1cccc(NC(=S)NC(=O)c2cccs2)n1`, the IC50 in [4] and in [5] was > 66 µM (inactive) in each case. Moreover, at Cytochrome P450 3A4, the AC50 is 28.2 µM (inconclusive).

For `Cc1oc(-c2ccc(Cl)cc2)nc1CN1CCCC(C(=O)N2CCN(C(=O)c3ccco3)CC2)C1` (centres undefined), the results for the EC50 in test [12] and in test [13] were 26 µM (active) and 17.3 µM (active), respectively.

Regarding `O=C(Nc1nnc(COc2ccc(F)cc2)s1)c1ccco1`, the EC50 in test [6] is > 160 µM (inactive); in [7], 3.15 µM (active).

For the compound `COC(=O)C1=C(c2ccc(F)cc2OCc2ccccc2)C[C@@H]2CC[C@H]1N2C(=O)NCc1ccc(C(F)(F)F)cc1`, the AC50 in test [9] is 9.14 µM (active); in [10], > 70 µM (inactive); in [11], 7.19 µM (active); on Paired box protein Pax-8, 10.9 µM (active).

`COc1ccccc1CNc1nc(NCc2ccccc2SC)c2sccc2n1`: the concentration at half-maximal activity (AC50) is 4.48 µM (active) in [9], 21.1 µM (active) in test [10] and 5.2 µM (active) in test [11].

For the compound `Cc1nn(-c2ccccc2)c(C)c1/C=N/NC(=O)CSc1nc2ccccc2c(=O)n1-c1ccc(Br)cc1`, the EC50 is 7.38 µM (active) in [12] and 7.27 µM (active) in [13].

For the compound `Cc1cc(O)c(/C=N/Nc2ccc(Cl)cc2)c(=O)o1`, the figures for the concentration giving a half-maximal response (EC50) in test [6] and in test [7] were 29.8 µM (active) and 0.273 µM (active), respectively.

`O=C(N/N=C/c1cc([N+](=O)[O-])ccc1O)C1C2CCCCC21` (centres undefined): the EC50 was > 150 µM (inactive) in test [6] and 2.35 µM (active) in test [7].

`COc1cccc(/N=c2\oc3c(C)ncc(CO)c3cc2C(=O)Nc2ccccc2OC)c1`: the EC50 in test [1], in test [2] and in test [3] was > 120 µM (not active) each time.
